Like-named read-outs stand apart in the source and are kept apart here.
Key:
Experiment in all cases: radioligand binding assay
[1] = target: T1, human recombinant vasopressin V1a receptor (Homo sapiens, UniProt P37288); settings: read-out: Bingding Assy (IC50; nmol/mL) / V1a
T1 construct: gene AVPR1A; full-length recombinant receptor in 1321N1 host cells (PerkinElmer)
Text: (§1) radioligand binding assay on human recombinant vasopressin V1a receptor

[2] = target: T2, human recombinant vasopressin V2 receptor (Homo sapiens, UniProt P30518); format: cell-based; settings: read-out: Bingding Assy (IC50; nmol/mL) / V2
T2 construct: gene AVPR2; full-length recombinant receptor in 1321N1 host cells (PerkinElmer)
T2 sequence (P30518 whole entry): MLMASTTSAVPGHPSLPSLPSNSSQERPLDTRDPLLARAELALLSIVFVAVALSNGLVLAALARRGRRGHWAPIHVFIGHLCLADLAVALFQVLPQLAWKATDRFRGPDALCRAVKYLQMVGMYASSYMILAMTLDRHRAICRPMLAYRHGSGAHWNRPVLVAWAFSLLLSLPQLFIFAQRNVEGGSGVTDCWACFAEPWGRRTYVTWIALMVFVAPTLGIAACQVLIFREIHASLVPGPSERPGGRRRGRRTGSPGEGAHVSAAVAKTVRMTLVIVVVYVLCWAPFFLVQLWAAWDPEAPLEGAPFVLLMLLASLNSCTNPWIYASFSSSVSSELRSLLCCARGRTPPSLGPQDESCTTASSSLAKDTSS
Text: (§2) radioligand binding assay on human recombinant vasopressin V2 receptor

[3] = target: T1, human recombinant vasopressin V1a receptor; format: cell-based; settings: read-out: Bingding Assy (IC50; nmol/mL) / V1a
Text: as §1

[4] = target: T2, human recombinant vasopressin V2 receptor; settings: read-out: Bingding Assy (IC50; nmol/mL) / V2
Text: as §2

T1 sequence (P37288 whole entry): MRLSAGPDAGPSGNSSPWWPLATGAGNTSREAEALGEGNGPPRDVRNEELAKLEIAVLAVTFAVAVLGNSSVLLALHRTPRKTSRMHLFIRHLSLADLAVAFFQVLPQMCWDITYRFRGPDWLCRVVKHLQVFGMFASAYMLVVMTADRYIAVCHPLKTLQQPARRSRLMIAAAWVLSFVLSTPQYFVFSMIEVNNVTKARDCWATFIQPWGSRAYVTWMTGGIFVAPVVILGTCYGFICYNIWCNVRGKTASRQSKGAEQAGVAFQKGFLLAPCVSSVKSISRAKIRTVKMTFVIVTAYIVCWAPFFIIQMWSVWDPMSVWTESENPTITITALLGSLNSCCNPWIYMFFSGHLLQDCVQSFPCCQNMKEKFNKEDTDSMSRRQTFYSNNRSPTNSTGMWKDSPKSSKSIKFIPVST

Compound | IC50 [1] [nmol/mL] | IC50 [2] [nmol/mL] | IC50 [3] [nmol/mL] | IC50 [4] [nmol/mL]
CCC(=O)Nc1ccc(C(=O)N2CCC(=C3c4ccc(Cl)cc4CCc4cccnc43)CC2)cc1 [1a] | 130 | – | – | –
CCCC(=O)Nc1ccc(C(=O)N2CCC(=C3c4ccc(Cl)cc4CCc4cccnc43)CC2)cc1 [1b] | > 1000 | 47 | – | –
O=C(CCCCl)Nc1ccc(C(=O)N2CCC(=C3c4ccc(Cl)cc4CCc4cccnc43)CC2)cc1 [1c, 4-Chloro-N-(4-(4-(8-chloro-5H-benzo[5,6]cyclohepta[1,2-b]pyridin-11(6H)-ylidene)piperidine-1-carbonyl)phenyl)butanamide] | > 1000 | 25 | – | –
CCS(=O)(=O)Nc1ccc(C(=O)N2CCC(=C3c4ccc(Cl)cc4CCc4cccnc43)CC2)cc1 [1d, N-(4-(4-(8-Chloro-5H-benzo[5,6]cyclohepta[1,2-b]pyridin-11(6H)-ylidene)piperidine-1-carbonyl)phenyl)ethanesulfonamide] | 92 | – | – | –
CCCC(=O)Nc1cccc(S(=O)(=O)N2CCC(=C3c4ccc(Cl)cc4CCc4cccnc43)CC2)c1 [1e, N-(3-((4-(8-Chloro-5H-benzo[5,6]cyclohepta[1,2-b]pyridin-11(6H)-ylidene)piperidin-1-yl)sulfonyl)phenyl)butyramide] | 176 | 26 | – | –
CCCC(=O)Nc1ccc(S(=O)(=O)N2CCC(=C3c4ccc(Cl)cc4CCc4cccnc43)CC2)cc1 [1f, N-(4-((4-(8-Chloro-5H-benzo[5,6]cyclohepta[1,2-b]pyridin-11(6H)-ylidene)piperidin-1-yl)sulfonyl)phenyl)butyramide] | 480 | 40 | – | –
O=C(Nc1ccc(C(=O)N2CCC(=C3c4ccc(Cl)cc4CCc4cccnc43)CC2)cc1)c1ccccc1 [1g, N-(4-(4-(8-Chloro-5H-benzo[5,6]cyclohepta[1,2-b]pyridin-11(6H)-ylidene)piperidine-1-carbonyl)phenyl)benzamide] | 330 | 19 | – | –
Cc1ccccc1C(=O)Nc1ccc(C(=O)N2CCC(=C3c4ccc(Cl)cc4CCc4cccnc43)CC2)cc1 [1h] | – | 23 | 210 | –
Cc1ccc(C(=O)Nc2ccc(C(=O)N3CCC(=C4c5ccc(Cl)cc5CCc5cccnc54)CC3)cc2)cc1 [1i] | – | 18 | 220 | –
Cc1cccc(C(=O)Nc2ccc(C(=O)N3CCC(=C4c5ccc(Cl)cc5CCc5cccnc54)CC3)cc2)c1 [1j, N-(4-(4-(8-Chloro-5H-benzo[5,6]cyclohepta[1,2-b]pyridin-11(6H)-ylidene)piperidine-1-carbonyl)phenyl)-3-methylbenzamide] | – | – | 370 | –
O=C(Nc1ccc(C(=O)N2CCC(=C3c4ccc(Cl)cc4CCc4cccnc43)CC2)cc1)c1ccccc1Cl [1k, 2-Chloro-N-(4-(4-(8-chloro-5H-benzo[5,6]cyclohepta[1,2-b]pyridin-11(6H)-ylidene)piperidine-1-carbonyl)phenyl)benzamide] | – | 27 | 490 | –
O=C(Nc1ccc(C(=O)N2CCC(=C3c4ccc(Cl)cc4CCc4cccnc43)CC2)cc1)c1cccc(Cl)c1 [1l, 3-Chloro-N-(4-(4-(8-chloro-5H-benzo[5,6]cyclohepta[1,2-b]pyridin-11(6H)-ylidene)piperidine-1-carbonyl)phenyl)benzamide] | – | 16 | 560 | –
O=C(Nc1ccc(C(=O)N2CCC(=C3c4ccc(Cl)cc4CCc4cccnc43)CC2)cc1)c1ccccc1F [1m, N-(4-(4-(8-Chloro-5H-benzo[5,6]cyclohepta[1,2-b]pyridin-11(6H)-ylidene)piperidine-1-carbonyl)phenyl)-2-fluorobenzamide] | – | 20 | 170 | –
COc1cccc(C(=O)Nc2ccc(C(=O)N3CCC(=C4c5ccc(Cl)cc5CCc5cccnc54)CC3)cc2)c1 [1n, N-(4-(4-(8-Chloro-5H-benzo[5,6]cyclohepta[1,2-b]pyridin-11(6H)-ylidene)piperidine-1-carbonyl)phenyl)-3-methoxybenzamide] | – | – | 390 | –
O=C(Nc1ccc(C(=O)N2CCC(=C3c4ccc(Cl)cc4CCc4cccnc43)CC2)cc1)c1cccc([N+](=O)[O-])c1 [1o, N-(4-(4-(8-Chloro-5H-benzo[5,6]cyclohepta[1,2-b]pyridin-11(6H)-ylidene)piperidine-1-carbonyl)phenyl)-3-nitrobenzamide] | – | 18 | 550 | –
O=C(Nc1ccc(C(=O)N2CCC(=C3c4ccc(Cl)cc4CCc4cccnc43)CC2)cc1)c1ccc([N+](=O)[O-])cc1 [1p, N-(4-(4-(8-Chloro-5H-benzo[5,6]cyclohepta[1,2-b]pyridin-11(6H)-ylidene)piperidine-1-carbonyl)phenyl)-4-nitrobenzamide] | – | 52 | > 1000 | –
Cc1ccc(S(=O)(=O)Nc2ccc(C(=O)N3CCC(=C4c5ccc(Cl)cc5CCc5cccnc54)CC3)cc2)cc1 [1q, N-(4-(4-(8-Chloro-5H-benzo[5,6]cyclohepta[1,2-b]pyridin-11(6H)-ylidene)piperidine-1-carbonyl)phenyl)-4-methylbenzenesulfonamide] | – | 24 | 720 | –
O=C(c1ccc(NS(=O)(=O)c2ccccc2Cl)cc1)N1CCC(=C2c3ccc(Cl)cc3CCc3cccnc32)CC1 [1r, 2-Chloro-N-(4-(4-(8-chloro-5H-benzo[5,6]cyclohepta[1,2-b]pyridin-11(6H)-ylidene)piperidine-1-carbonyl)phenyl)benzenesulfonamide] | – | – | 830 | –
O=C(c1ccc(NS(=O)(=O)c2cc(Cl)ccc2Cl)cc1)N1CCC(=C2c3ccc(Cl)cc3CCc3cccnc32)CC1 [1s, 2,5-Dichloro-N-(4-(4-(8-chloro-5H-benzo[5,6]cyclohepta[1,2-b]pyridin-11(6H)-ylidene)piperidine-1-carbonyl)phenyl)benzenesulfonamide] | – | – | 320 | –
O=C(Nc1cccc(S(=O)(=O)N2CCC(=C3c4ccc(Cl)cc4CCc4cccnc43)CC2)c1)c1ccccc1 [1t, N-(3-((4-(8-Chloro-5H-benzo[5,6]cyclohepta[1,2-b]pyridin-11(6H)-ylidene)piperidin-1-yl)sulfonyl)phenyl)benzamide] | – | – | > 1000 | –
O=C(Nc1cccc(S(=O)(=O)N2CCC(=C3c4ccc(Cl)cc4CCc4cccnc43)CC2)c1)c1cccc(Cl)c1 [1u, 3-Chloro-N-(3-((4-(8-chloro-5H-benzo[5,6]cyclohepta[1,2-b]pyridin-11(6H)-ylidene)piperidin-1-yl)-sulfonyl)phenyl)benzamide] | – | – | 840 | 19
O=C(Nc1cccc(S(=O)(=O)N2CCC(=C3c4ccc(Cl)cc4CCc4cccnc43)CC2)c1)c1cccc([N+](=O)[O-])c1 [1v, N-(3-((4-(8-Chloro-5H-benzo[5,6]cyclohepta[1,2-b]pyridin-11(6H)-ylidene)piperidin-1-yl)sulfonyl)phenyl)-3-nitrobenzamide] | – | – | 630 | –
Cc1ccc(S(=O)(=O)Nc2cccc(S(=O)(=O)N3CCC(=C4c5ccc(Cl)cc5CCc5cccnc54)CC3)c2)cc1 [1w, N-(3-((4-(8-Chloro-5H-benzo[5,6]cyclohepta[1,2-b]pyridin-11(6H)-ylidene)piperidin-1-yl)sulfonyl)phenyl)-4-methylbenzenesulfonamide] | – | – | 860 | 30
O=C(Nc1ccc(S(=O)(=O)N2CCC(=C3c4ccc(Cl)cc4CCc4cccnc43)CC2)cc1)c1cccc(Cl)c1 [1x, 3-Chloro-N-(4-((4-(8-chloro-5H-benzo[5,6]cyclohepta[1,2-b]pyridin-11(6H)-ylidene)piperidin-1-yl)-sulfonyl)phenyl)benzamide] | – | – | > 1000 | 310
Cc1ccc(S(=O)(=O)Nc2ccc(S(=O)(=O)N3CCC(=C4c5ccc(Cl)cc5CCc5cccnc54)CC3)cc2)cc1 [1y, N-(4-((4-(8-Chloro-5H-benzo[5,6]cyclohepta[1,2-b]pyridin-11(6H)-ylidene)piperidin-1-yl)sulfonyl)phenyl)-4-methylbenzenesulfonamide] | – | – | 920 | 170
